Tests used:
[1] = system: HEXIM1 mRNA in PaTu8988T cells; assay: Quantitative RT-PCR of BET-inhibition biomarker; assay type: cell-based; conditions: 6 h, 1 μΜ compound
Procedure: Total RNA was extracted from cell culture using the Maxwell RSC simply RNA Cells Kit (Promega) according to the manufacturer’s protocol. cDNA was synthesized using PrimeScript Reverse Transcriptase (TakaRa) and amplified using homemade PCR master mix. The amplicon was detected by EvaGreen Dye using a LightCycler 480 instrument (Roche). PCR conditions were 5 min at 95 °C, followed by 45 cycles of 95 °C for 10 s, 59 °C for 10 s, and 72 °C for 20 s. The relative gene expression levels were normalized to GUSB and calculated using the 2^–ΔΔC^t method.

HDAC10 = biological target: T1, HDAC10 (Homo sapiens, UniProt Q969S8); assay: HDAC selectivity profile (Reaction Biology); assay type: biochemical; conditions: no inhibitor control as 100%, read-out: % Enzyme activity HDAC10
T1 construct: purchased Reaction Biology
Procedure: (§1) The reactions were performed by Reaction Biology using a protease-coupled assay with fluorogenic substrates where, after deacetylation by the HDAC and subsequent proteolytic digest, the free fluorophore 7-amino-4-methyl coumarin (AMC) can be quantified.[60] The following substrates were used for activity assays: HDACs 1, 2, 3, and 6: fluorogenic tetrapeptide from p53 residues 379–382 (RHKK(Ac) AMC); HDACs 4, 5, 7, 9, and 11: fluorogenic HDAC class2a substrate (trifluoroacetyl lysine); HDAC8: twice acetylated fluorogenic tetrapeptide from p53 residues 379–382 (RHK(Ac) K(Ac) AMC); HDAC10: Ac-spermidine-AMC. Data are given as % residual activity compared with the uninhibited control reaction.

HDAC11 = biological target: T2, HDAC11 (Homo sapiens, UniProt Q96DB2); assay: HDAC selectivity profile (Reaction Biology); assay type: biochemical; conditions: no inhibitor control as 100%
T2 construct: purchased Reaction Biology
T2 sequence (Q96DB2 1-347): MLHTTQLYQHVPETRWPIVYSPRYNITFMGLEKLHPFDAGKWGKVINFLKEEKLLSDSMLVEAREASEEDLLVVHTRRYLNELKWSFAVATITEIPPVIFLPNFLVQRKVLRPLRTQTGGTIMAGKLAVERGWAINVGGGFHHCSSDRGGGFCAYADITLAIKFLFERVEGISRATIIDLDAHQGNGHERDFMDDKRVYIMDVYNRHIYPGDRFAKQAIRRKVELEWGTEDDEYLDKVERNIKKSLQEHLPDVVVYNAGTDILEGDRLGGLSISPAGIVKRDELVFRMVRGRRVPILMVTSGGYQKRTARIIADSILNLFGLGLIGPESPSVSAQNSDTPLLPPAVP
Procedure: as §1

HDAC4 = biological target: T3, HDAC4 (Homo sapiens, UniProt P56524); assay: HDAC selectivity profile (Reaction Biology); assay type: biochemical; conditions: no inhibitor control as 100%, read-out: % Enzyme activity HDAC4
T3 construct: purchased Reaction Biology
Procedure: as §1

HDAC5 = biological target: T4, HDAC5 (Homo sapiens, UniProt Q9UQL6); assay: HDAC selectivity profile (Reaction Biology); assay type: biochemical; conditions: no inhibitor control as 100%, read-out: % Enzyme activity HDAC5
T4 construct: purchased Reaction Biology
Procedure: as §1

HDAC6 = biological target: T5, HDAC6 (Homo sapiens, UniProt Q9UBN7); assay: HDAC selectivity profile (Reaction Biology); assay type: biochemical; conditions: no inhibitor control as 100%, read-out: % Enzyme activity HDAC6
T5 construct: purchased Reaction Biology
Procedure: as §1

HDAC7 = biological target: T6, HDAC7 (Homo sapiens, UniProt Q8WUI4); assay: HDAC selectivity profile (Reaction Biology); assay type: biochemical; conditions: no inhibitor control as 100%, read-out: % Enzyme activity HDAC7
T6 construct: purchased Reaction Biology
Procedure: as §1

HDAC8 = biological target: T7, HDAC8 (Homo sapiens, UniProt Q9BY41); assay: HDAC selectivity profile (Reaction Biology); assay type: biochemical; conditions: no inhibitor control as 100%, read-out: % Enzyme activity HDAC8
T7 construct: purchased Reaction Biology
Procedure: as §1

HDAC9 = biological target: T8, HDAC9 (Homo sapiens, UniProt Q9UKV0); assay: HDAC selectivity profile (Reaction Biology); assay type: biochemical; conditions: no inhibitor control as 100%, read-out: % Enzyme activity HDAC9
T8 construct: purchased Reaction Biology
Procedure: as §1

[2] = system: zinc-dependent HDACs (HDAC1–11); assay: HDAC selectivity profile, whole panel; assay type: biochemical, human; conditions: 1 and 10 μM
Procedure: as §1

HDAC2 = HDAC2 (Homo sapiens, UniProt Q92769); assay: HDAC selectivity profile (Reaction Biology); assay type: biochemical; design: purchased Reaction Biology; conditions: no inhibitor control as 100%, read-out: % Enzyme activity HDAC2
Procedure: as §1

T7 sequence (Q9BY41 whole entry): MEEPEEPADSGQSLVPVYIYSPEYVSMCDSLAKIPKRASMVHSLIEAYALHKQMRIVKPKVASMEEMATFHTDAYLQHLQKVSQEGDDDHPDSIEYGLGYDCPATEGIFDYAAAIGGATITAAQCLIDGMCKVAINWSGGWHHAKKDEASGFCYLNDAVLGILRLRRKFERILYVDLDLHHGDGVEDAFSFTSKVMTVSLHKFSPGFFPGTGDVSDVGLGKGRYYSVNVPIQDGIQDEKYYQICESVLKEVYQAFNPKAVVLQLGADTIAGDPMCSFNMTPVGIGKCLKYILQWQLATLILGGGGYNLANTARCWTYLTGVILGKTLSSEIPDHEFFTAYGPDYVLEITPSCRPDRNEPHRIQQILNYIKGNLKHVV
Sequence of HDAC2 (Q92769 whole entry): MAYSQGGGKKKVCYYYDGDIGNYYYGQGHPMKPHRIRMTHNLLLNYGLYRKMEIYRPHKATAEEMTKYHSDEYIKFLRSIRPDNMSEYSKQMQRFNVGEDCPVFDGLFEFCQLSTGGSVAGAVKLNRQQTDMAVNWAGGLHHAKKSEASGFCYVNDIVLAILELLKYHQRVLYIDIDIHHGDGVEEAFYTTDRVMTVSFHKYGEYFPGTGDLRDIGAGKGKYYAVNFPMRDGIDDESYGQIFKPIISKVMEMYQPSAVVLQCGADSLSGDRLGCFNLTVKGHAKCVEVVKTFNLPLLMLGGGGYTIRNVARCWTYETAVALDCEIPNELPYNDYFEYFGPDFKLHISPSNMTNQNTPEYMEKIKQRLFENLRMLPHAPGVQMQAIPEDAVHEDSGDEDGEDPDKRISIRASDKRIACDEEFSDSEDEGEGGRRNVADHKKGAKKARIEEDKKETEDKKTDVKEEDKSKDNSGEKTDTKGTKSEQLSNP
T8 sequence (Q9UKV0 whole entry): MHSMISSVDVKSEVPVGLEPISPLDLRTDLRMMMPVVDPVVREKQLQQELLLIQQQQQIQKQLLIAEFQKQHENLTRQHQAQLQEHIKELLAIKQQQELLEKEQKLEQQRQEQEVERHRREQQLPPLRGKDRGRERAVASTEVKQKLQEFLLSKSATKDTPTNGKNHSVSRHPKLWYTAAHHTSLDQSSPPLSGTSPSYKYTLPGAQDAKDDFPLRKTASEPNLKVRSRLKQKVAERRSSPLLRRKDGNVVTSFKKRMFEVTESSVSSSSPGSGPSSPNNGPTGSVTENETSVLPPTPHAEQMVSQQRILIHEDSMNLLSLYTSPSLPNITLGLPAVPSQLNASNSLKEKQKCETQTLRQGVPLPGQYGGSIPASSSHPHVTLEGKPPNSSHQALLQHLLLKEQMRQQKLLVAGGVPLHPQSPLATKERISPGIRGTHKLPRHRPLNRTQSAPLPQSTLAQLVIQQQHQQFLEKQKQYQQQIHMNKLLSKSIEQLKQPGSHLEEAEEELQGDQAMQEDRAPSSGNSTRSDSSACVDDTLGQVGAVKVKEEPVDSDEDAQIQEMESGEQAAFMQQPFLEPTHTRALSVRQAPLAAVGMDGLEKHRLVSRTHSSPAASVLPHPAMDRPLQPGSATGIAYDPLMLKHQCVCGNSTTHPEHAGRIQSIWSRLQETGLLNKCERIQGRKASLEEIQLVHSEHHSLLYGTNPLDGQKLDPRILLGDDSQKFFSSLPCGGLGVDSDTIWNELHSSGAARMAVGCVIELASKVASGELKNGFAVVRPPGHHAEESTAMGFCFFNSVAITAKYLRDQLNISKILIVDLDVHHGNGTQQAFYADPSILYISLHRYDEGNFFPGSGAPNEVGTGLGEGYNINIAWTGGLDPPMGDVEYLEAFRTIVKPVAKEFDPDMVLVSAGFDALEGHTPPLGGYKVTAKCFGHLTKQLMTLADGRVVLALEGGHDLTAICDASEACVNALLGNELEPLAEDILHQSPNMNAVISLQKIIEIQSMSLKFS
T1 sequence (Q969S8 whole entry): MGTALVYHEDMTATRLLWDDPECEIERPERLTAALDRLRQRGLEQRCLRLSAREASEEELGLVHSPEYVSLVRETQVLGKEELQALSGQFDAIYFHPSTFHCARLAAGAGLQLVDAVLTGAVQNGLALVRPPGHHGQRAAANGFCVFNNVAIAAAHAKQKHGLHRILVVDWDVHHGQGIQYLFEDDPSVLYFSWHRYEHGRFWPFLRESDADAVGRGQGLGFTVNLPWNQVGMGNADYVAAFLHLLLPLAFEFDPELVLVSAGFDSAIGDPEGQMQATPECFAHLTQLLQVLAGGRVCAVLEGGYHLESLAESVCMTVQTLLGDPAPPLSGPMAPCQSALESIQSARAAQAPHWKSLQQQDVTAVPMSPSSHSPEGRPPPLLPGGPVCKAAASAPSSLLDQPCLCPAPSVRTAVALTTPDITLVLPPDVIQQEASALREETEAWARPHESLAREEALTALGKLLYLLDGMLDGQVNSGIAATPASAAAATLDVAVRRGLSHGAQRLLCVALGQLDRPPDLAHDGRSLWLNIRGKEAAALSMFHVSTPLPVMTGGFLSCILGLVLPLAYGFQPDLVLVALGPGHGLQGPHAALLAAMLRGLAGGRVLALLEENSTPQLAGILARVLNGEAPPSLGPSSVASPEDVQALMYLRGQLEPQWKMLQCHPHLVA
T3 sequence (P56524 whole entry): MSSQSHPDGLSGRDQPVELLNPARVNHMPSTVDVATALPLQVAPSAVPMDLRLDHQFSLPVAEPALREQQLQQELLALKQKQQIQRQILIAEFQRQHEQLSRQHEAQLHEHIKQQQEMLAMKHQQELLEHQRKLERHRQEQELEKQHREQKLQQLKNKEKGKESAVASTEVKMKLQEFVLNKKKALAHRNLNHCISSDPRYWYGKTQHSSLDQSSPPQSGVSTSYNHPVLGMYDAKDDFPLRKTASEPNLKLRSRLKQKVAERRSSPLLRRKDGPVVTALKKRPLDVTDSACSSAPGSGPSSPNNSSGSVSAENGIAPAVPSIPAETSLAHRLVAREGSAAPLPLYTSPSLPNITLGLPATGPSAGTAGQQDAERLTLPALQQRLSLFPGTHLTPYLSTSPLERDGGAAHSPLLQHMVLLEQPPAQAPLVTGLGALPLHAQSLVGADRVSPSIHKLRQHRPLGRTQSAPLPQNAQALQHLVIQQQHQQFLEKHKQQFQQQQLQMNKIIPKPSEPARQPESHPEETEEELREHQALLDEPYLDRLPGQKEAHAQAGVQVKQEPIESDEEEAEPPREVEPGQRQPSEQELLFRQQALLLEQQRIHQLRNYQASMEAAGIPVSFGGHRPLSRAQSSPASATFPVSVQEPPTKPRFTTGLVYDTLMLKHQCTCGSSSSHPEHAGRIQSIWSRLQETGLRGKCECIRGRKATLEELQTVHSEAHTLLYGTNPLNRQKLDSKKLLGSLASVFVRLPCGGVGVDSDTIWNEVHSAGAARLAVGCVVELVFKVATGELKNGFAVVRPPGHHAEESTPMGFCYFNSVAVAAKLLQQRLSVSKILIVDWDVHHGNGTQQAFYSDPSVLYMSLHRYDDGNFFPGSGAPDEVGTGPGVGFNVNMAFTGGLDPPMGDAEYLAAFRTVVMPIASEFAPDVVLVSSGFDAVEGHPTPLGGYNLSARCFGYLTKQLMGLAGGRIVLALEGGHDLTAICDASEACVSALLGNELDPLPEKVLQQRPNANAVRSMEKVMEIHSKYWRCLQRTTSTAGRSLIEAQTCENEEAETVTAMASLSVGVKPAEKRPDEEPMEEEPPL
T6 sequence (Q8WUI4 whole entry): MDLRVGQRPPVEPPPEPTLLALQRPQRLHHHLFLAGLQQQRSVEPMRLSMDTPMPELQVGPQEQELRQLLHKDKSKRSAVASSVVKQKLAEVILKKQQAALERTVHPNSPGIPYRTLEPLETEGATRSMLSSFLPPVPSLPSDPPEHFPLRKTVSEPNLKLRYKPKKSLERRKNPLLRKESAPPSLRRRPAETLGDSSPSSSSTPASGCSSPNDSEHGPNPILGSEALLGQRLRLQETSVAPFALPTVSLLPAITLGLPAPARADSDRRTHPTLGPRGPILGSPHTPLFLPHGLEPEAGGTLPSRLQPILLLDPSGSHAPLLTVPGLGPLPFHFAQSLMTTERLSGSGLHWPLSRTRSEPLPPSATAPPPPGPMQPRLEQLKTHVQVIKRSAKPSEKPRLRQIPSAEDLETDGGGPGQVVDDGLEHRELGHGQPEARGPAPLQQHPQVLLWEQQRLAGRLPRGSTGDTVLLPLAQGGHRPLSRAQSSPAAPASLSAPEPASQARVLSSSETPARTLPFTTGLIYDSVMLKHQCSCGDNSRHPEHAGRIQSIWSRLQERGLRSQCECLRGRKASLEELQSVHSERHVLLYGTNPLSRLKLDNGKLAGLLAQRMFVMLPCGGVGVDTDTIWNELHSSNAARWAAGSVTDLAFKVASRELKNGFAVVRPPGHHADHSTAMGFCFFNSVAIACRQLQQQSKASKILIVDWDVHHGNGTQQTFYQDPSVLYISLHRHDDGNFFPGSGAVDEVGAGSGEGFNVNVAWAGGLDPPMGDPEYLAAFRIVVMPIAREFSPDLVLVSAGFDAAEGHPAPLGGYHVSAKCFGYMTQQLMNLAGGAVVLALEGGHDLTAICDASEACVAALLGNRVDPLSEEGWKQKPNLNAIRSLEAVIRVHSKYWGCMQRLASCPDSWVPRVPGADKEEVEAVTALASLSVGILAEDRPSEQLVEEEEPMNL

Cn1cc(-c2ccc(C(=O)Nc3cc(-c4ccccc4)ccc3N)cc2)c2cc[nH]c2c1=O [NB503]
HEXIM1 mRNA levels [1]: strongest effect

Cn1cc(-c2ccc(C(=O)Nc3cc(-c4ccccc4)ccc3N)nc2)c2cc[nH]c2c1=O [NB512]
remaining activity at 1 µM (HDAC10; 1 µM NB512): 98.1%
remaining activity at 10 µM (HDAC10; 10 µM NB512): 98.6%
remaining activity at 1 µM (HDAC11; 1 µM NB512, read-out: % Enzyme activity HDAC11): 97.7%
% Enzyme activity HDAC11 (HDAC11; 10 µM NB512): 60%
remaining activity at 10 µM (HDAC11; 10 µM NB512, read-out: % Enzyme activity HDAC11): 59.9%
remaining activity at 1 µM (HDAC4; 1 µM NB512): 91.5%
remaining activity at 10 µM (HDAC4; 10 µM NB512): 82.4%
remaining activity at 1 µM (HDAC5; 1 µM NB512): 89.3%
remaining activity at 10 µM (HDAC5; 10 µM NB512): 84.1%
remaining activity at 1 µM (HDAC6; 1 µM NB512): 100%
remaining activity at 10 µM (HDAC6; 10 µM NB512): 90.2%
remaining activity at 1 µM (HDAC7; 1 µM NB512): 101%
remaining activity at 10 µM (HDAC7; 10 µM NB512): 101%
remaining activity at 1 µM (HDAC8; 1 µM NB512): 96.4%
remaining activity at 10 µM (HDAC8; 10 µM NB512): 97.9%
remaining activity at 1 µM (HDAC9; 1 µM NB512): 96.2%
remaining activity at 10 µM (HDAC9; 10 µM NB512): 85%
selectivity among zinc-dependent HDACs [2]: high selectivity for HDAC1/2
remaining activity at 1 µM (HDAC2; 1 µM NB512): 50.3%
remaining activity at 10 µM (HDAC2; 10 µM NB512): 13.5%
